Data reported in patent US20090275634A1 (priority 2006, published 2009).

Key:
[1] = system: peritoneal macrophages derived from MyD88 KO mice; type: cell-based, MyD88 KO mice (C57BL6 background)
[2] = system: peritoneal macrophages from TLR9 KO mice; type: cell-based
[3] = system: peritoneal macrophages derived from MyD88 KO mice; type: cell-based, MyD88 KO mice (C57BL6 background); remark: listed apart in the source
peritoneal macrophages [4] = type: cell-based, C57BL6 mice
peritoneal macrophages [5] = type: cell-based, C57BL6 mice; remark: listed apart in the source

## 5′-CTGCCACGTTCTCCTGCA*C*C*-3′ [nuclease resistant EN101]
[1]
  number of MAC-1 positive cells: reduced significantly
[2]
  number of total and MAC-1 positive cells: reduced significantly
[3]
  effect on MIP-2 levels in the supernatants of PMs: almost totally inhibited
Peritoneal macrophages [4]
  MIP-2 secretion from PMs: inhibited
  levels of MIP-2 in the supernatants of PM: strongly elevated
  secretion of IL-6 from activated PMs: did not induce secretion
  secretion of TNF-α from activated PMs: did not induce secretion
Peritoneal macrophages [5]
  number of MAC-1 positive cells: minor effect
Peritoneal macrophages [5]; 72 hr
  survival/proliferation of total and activated peritoneal macrophages: inhibited
